{"source": "the supplement of paper PMC10307832", "assay_in_all_cases": "relative viability (nuclei count vs DMSO), 5 days (fraction); higher = more cells survive", "key": {"[1]": {"tested_on": "NCI-H2087", "method_in_brief": "(§1)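 Relative viability divides the nuclei count in treated wells by that in vehicle wells. Lung cancer cell lines were seeded in 1536-well plates, dosed by pin tool the next day, and fixed and stained after 5 days in one step with final 0.05% Triton X-100, 1% formaldehyde and 1 ug/ml Hoechst. Dosing was a single drug or a fixed anchor-drug dose plus five library-drug doses (not always all listed) in √10 steps, and values are medians of duplicate plates imaged at 4×.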"}, "[2]": {"tested_on": "PC-3 [JPC-3]", "method_in_brief": "as §1"}, "[3]": {"tested_on": "H3255", "method_in_brief": "as §1"}, "[4]": {"tested_on": "NCI-H650", "method_in_brief": "as §1"}, "[5]": {"tested_on": "NCI-H647", "method_in_brief": "as §1"}, "[6]": {"tested_on": "NCI-H1666", "method_in_brief": "as §1"}, "[7]": {"tested_on": "NCI-H2085", "method_in_brief": "as §1"}, "[8]": {"tested_on": "COR-L 105", "method_in_brief": "as §1"}, "[9]": {"tested_on": "LOU-NH91", "method_in_brief": "as §1"}, "[10]": {"tested_on": "LCLC-97TM1", "method_in_brief": "as §1"}, "[11]": {"tested_on": "LU99A", "method_in_brief": "as §1"}, "[12]": {"tested_on": "SW 1573", "method_in_brief": "as §1"}, "[13]": {"tested_on": "201T", "method_in_brief": "as §1"}, "[14]": {"tested_on": "EPLC-272H", "method_in_brief": "as §1"}, "[15]": {"tested_on": "EKVX", "method_in_brief": "as §1"}, "[16]": {"tested_on": "BEN", "method_in_brief": "as §1"}, "[17]": {"tested_on": "HCC-827", "method_in_brief": "as §1"}, "[18]": {"tested_on": "NCI-H1437", "method_in_brief": "as §1"}, "[19]": {"tested_on": "HCC-44", "method_in_brief": "as §1"}, "[20]": {"tested_on": "NCI-H1975", "method_in_brief": "as §1"}}}
{"smiles": "O=c1cc(-c2cccc3c2Sc2ccccc2S3)oc(N2CCOCC2)c1", "note": "+ C[C@]1(O)C[C@@H](c2nc(-c3ccc4ccc(-c5ccccc5)nc4c3)c3c(N)nccn32)C1 [Linsitinib] (partner 1 µM)", "values": [{"measurement": "relative viability", "setting": "[1]; first compound 0.08 µM", "value": 1.1}, {"measurement": "relative viability", "setting": "[1]; first compound 0.253 µM", "value": 1.03}, {"measurement": "relative viability", "setting": "[1]; first compound 0.8 µM", "value": 0.927}, {"measurement": "relative viability", "setting": "[1]; first compound 2.53 µM", "value": 0.952}, {"measurement": "relative viability", "setting": "[1]; first compound 8 µM", "value": 1.01}, {"measurement": "relative viability", "setting": "[2]; first compound 0.08 µM", "value": 1.02}, {"measurement": "relative viability", "setting": "[2]; first compound 0.253 µM", "value": 1.03}, {"measurement": "relative viability", "setting": "[2]; first compound 0.8 µM", "value": 0.992}, {"measurement": "relative viability", "setting": "[2]; first compound 2.53 µM", "value": 0.972}, {"measurement": "relative viability", "setting": "[2]; first compound 8 µM", "value": 0.91}, {"measurement": "relative viability", "setting": "[3]; first compound 0.08 µM", "value": 1.15}, {"measurement": "relative viability", "setting": "[3]; first compound 0.253 µM", "value": 1.03}, {"measurement": "relative viability", "setting": "[3]; first compound 0.8 µM", "value": 1.02}, {"measurement": "relative viability", "setting": "[3]; first compound 2.53 µM", "value": 0.865}, {"measurement": "relative viability", "setting": "[3]; first compound 8 µM", "value": 0.983}, {"measurement": "relative viability", "setting": "[4]; first compound 0.08 µM", "value": 0.829}, {"measurement": "relative viability", "setting": "[4]; first compound 0.253 µM", "value": 0.854}, {"measurement": "relative viability", "setting": "[4]; first compound 0.8 µM", "value": 0.782}, {"measurement": "relative viability", "setting": "[4]; first compound 2.53 µM", "value": 0.642}, {"measurement": "relative viability", "setting": "[4]; first compound 8 µM", "value": 0.7}, {"measurement": "relative viability", "setting": "[5]; first compound 0.08 µM", "value": 1.3}, {"measurement": "relative viability", "setting": "[5]; first compound 0.253 µM", "value": 1.16}, {"measurement": "relative viability", "setting": "[5]; first compound 0.8 µM", "value": 1.16}, {"measurement": "relative viability", "setting": "[5]; first compound 2.53 µM", "value": 1.03}, {"measurement": "relative viability", "setting": "[5]; first compound 8 µM", "value": 1.35}, {"measurement": "relative viability", "setting": "[6]; first compound 0.08 µM", "value": 0.827}, {"measurement": "relative viability", "setting": "[6]; first compound 0.253 µM", "value": 0.946}, {"measurement": "relative viability", "setting": "[6]; first compound 0.8 µM", "value": 0.545}, {"measurement": "relative viability", "setting": "[6]; first compound 2.53 µM", "value": 0.738}, {"measurement": "relative viability", "setting": "[6]; first compound 8 µM", "value": 0.805}, {"measurement": "relative viability", "setting": "[7]; first compound 0.08 µM", "value": 0.812}, {"measurement": "relative viability", "setting": "[7]; first compound 0.253 µM", "value": 0.911}, {"measurement": "relative viability", "setting": "[7]; first compound 0.8 µM", "value": 0.925}, {"measurement": "relative viability", "setting": "[7]; first compound 2.53 µM", "value": 0.846}, {"measurement": "relative viability", "setting": "[7]; first compound 8 µM", "value": 0.595}, {"measurement": "relative viability", "setting": "[8]; first compound 0.08 µM", "value": 0.771}, {"measurement": "relative viability", "setting": "[8]; first compound 0.253 µM", "value": 1.11}, {"measurement": "relative viability", "setting": "[8]; first compound 0.8 µM", "value": 0.823}, {"measurement": "relative viability", "setting": "[8]; first compound 2.53 µM", "value": 0.958}, {"measurement": "relative viability", "setting": "[8]; first compound 8 µM", "value": 1.07}, {"measurement": "relative viability", "setting": "[9]; first compound 0.08 µM", "value": 0.946}, {"measurement": "relative viability", "setting": "[9]; first compound 0.253 µM", "value": 0.923}, {"measurement": "relative viability", "setting": "[9]; first compound 0.8 µM", "value": 0.845}, {"measurement": "relative viability", "setting": "[9]; first compound 2.53 µM", "value": 0.769}, {"measurement": "relative viability", "setting": "[9]; first compound 8 µM", "value": 0.893}, {"measurement": "relative viability", "setting": "[10]; first compound 0.08 µM", "value": 0.18}, {"measurement": "relative viability", "setting": "[10]; first compound 0.253 µM", "value": 0.194}, {"measurement": "relative viability", "setting": "[10]; first compound 0.8 µM", "value": 0.203}, {"measurement": "relative viability", "setting": "[10]; first compound 2.53 µM", "value": 0.188}, {"measurement": "relative viability", "setting": "[10]; first compound 8 µM", "value": 0.185}, {"measurement": "relative viability", "setting": "[11]; first compound 0.08 µM", "value": 0.58}, {"measurement": "relative viability", "setting": "[11]; first compound 0.253 µM", "value": 0.582}, {"measurement": "relative viability", "setting": "[11]; first compound 0.8 µM", "value": 0.631}, {"measurement": "relative viability", "setting": "[11]; first compound 2.53 µM", "value": 0.544}, {"measurement": "relative viability", "setting": "[11]; first compound 8 µM", "value": 0.608}, {"measurement": "relative viability", "setting": "[12]; first compound 0.08 µM", "value": 0.855}, {"measurement": "relative viability", "setting": "[12]; first compound 0.253 µM", "value": 0.819}, {"measurement": "relative viability", "setting": "[12]; first compound 0.8 µM", "value": 0.685}, {"measurement": "relative viability", "setting": "[12]; first compound 2.53 µM", "value": 0.809}, {"measurement": "relative viability", "setting": "[12]; first compound 8 µM", "value": 0.811}, {"measurement": "relative viability", "setting": "[13]; first compound 0.08 µM", "value": 0.99}, {"measurement": "relative viability", "setting": "[13]; first compound 0.253 µM", "value": 1.04}, {"measurement": "relative viability", "setting": "[13]; first compound 0.8 µM", "value": 0.929}, {"measurement": "relative viability", "setting": "[13]; first compound 2.53 µM", "value": 0.974}, {"measurement": "relative viability", "setting": "[13]; first compound 8 µM", "value": 0.986}, {"measurement": "relative viability", "setting": "[14]; first compound 0.08 µM", "value": 1.12}, {"measurement": "relative viability", "setting": "[14]; first compound 0.253 µM", "value": 1.31}, {"measurement": "relative viability", "setting": "[14]; first compound 0.8 µM", "value": 1.3}, {"measurement": "relative viability", "setting": "[14]; first compound 2.53 µM", "value": 1.19}, {"measurement": "relative viability", "setting": "[14]; first compound 8 µM", "value": 1.13}, {"measurement": "relative viability", "setting": "[15]; first compound 0.08 µM", "value": 1.17}, {"measurement": "relative viability", "setting": "[15]; first compound 0.253 µM", "value": 1.13}, {"measurement": "relative viability", "setting": "[15]; first compound 0.8 µM", "value": 0.818}, {"measurement": "relative viability", "setting": "[15]; first compound 2.53 µM", "value": 1.02}, {"measurement": "relative viability", "setting": "[15]; first compound 8 µM", "value": 0.935}, {"measurement": "relative viability", "setting": "[16]; first compound 0.08 µM", "value": 0.996}, {"measurement": "relative viability", "setting": "[16]; first compound 0.253 µM", "value": 1.04}, {"measurement": "relative viability", "setting": "[16]; first compound 0.8 µM", "value": 1.14}, {"measurement": "relative viability", "setting": "[16]; first compound 2.53 µM", "value": 0.898}, {"measurement": "relative viability", "setting": "[16]; first compound 8 µM", "value": 1.23}, {"measurement": "relative viability", "setting": "[17]; first compound 0.08 µM", "value": 0.892}, {"measurement": "relative viability", "setting": "[17]; first compound 0.253 µM", "value": 0.979}, {"measurement": "relative viability", "setting": "[17]; first compound 0.8 µM", "value": 0.925}, {"measurement": "relative viability", "setting": "[17]; first compound 2.53 µM", "value": 0.848}, {"measurement": "relative viability", "setting": "[17]; first compound 8 µM", "value": 0.915}, {"measurement": "relative viability", "setting": "[18]; first compound 0.08 µM", "value": 1.12}, {"measurement": "relative viability", "setting": "[18]; first compound 0.253 µM", "value": 1.49}, {"measurement": "relative viability", "setting": "[18]; first compound 0.8 µM", "value": 1.15}, {"measurement": "relative viability", "setting": "[18]; first compound 2.53 µM", "value": 0.997}, {"measurement": "relative viability", "setting": "[18]; first compound 8 µM", "value": 1.12}, {"measurement": "relative viability", "setting": "[19]; first compound 0.08 µM", "value": 0.681}, {"measurement": "relative viability", "setting": "[19]; first compound 0.253 µM", "value": 0.532}, {"measurement": "relative viability", "setting": "[19]; first compound 0.8 µM", "value": 0.696}, {"measurement": "relative viability", "setting": "[19]; first compound 2.53 µM", "value": 0.623}, {"measurement": "relative viability", "setting": "[19]; first compound 8 µM", "value": 0.548}, {"measurement": "relative viability", "setting": "[20]; first compound 0.08 µM", "value": 1.07}, {"measurement": "relative viability", "setting": "[20]; first compound 0.253 µM", "value": 1.2}, {"measurement": "relative viability", "setting": "[20]; first compound 0.8 µM", "value": 0.807}, {"measurement": "relative viability", "setting": "[20]; first compound 2.53 µM", "value": 0.863}, {"measurement": "relative viability", "setting": "[20]; first compound 8 µM", "value": 0.881}]}
